Experimental data published in US7834013B2, “Aminophenylcyclopropyl carboxylic acids and derivatives as agonists to GPR40” (GlaxoSmithKline LLC, priority 2003, dated 2010).
Counter-ions that a name gives are not always drawn.

Biological target: T1, GPR40 (Homo sapiens, UniProt O14842)
T1 construct: expressed in transfected cells
Test: GPR40 SAR Primary Assay (Elk-1/Gal4-luc+ reporter, luciferase activity)
Format: cell-based
Conditions: stable GPR40 Elk-1/Gal4-luc+ CHO cell line, 5 hours incubation
Experimental: An existing stable GPR40 Elk-1/Gal4-luc^+ CHO cell line generated by electroporation and functional cloning was used. Cells were maintained in a humidified incubator at 37° C./5% CO2 in complete media containing DMEM/F12 (Gibco, #11039-021), 5% FBS (Gibco, #16140-071) and 1% Glutamine (Gibco, #25030-081). Cell maintenance passages were made at 1:40 dilution every 3-4 days. Forty eight hours prior to assay, 15e6 cells were added to 200 ml of complete media then seeded into a 1200 cm^2-cell factory and returned to a humidified incubator at 37° C./5% CO2. 20 hours prior to assay, the growth media was removed and replaced with 200 ml of serum-free DMEM/F12 to quiesce background activity. At the time of assay, cells were harvested using non-enzymatic cell dissociation solution (Sigma, #C-5914), washed and counted. The 20 hour starve media was collected and used as condition media for cell assay plating. Cells were plated at a concentration of 10,000 cells/well in a total well volume of […] in black 96-well clear bottom polystyrene plates (CoStar, #3904). Test compounds were prepared as serial dilutions in 100% DMSO, then 1 ul was delivered to each well resulting in a final concentration of 1% DMSO. The plates were then returned to a humidified incubator at 37° C./5% CO2 for 5 hours. Following the incubation, the medium was replaced with 50 ul of a 1:1 mixture of SteadyGlo™ (Promega, #E2550) and dPBS containing 1 mM CaCl2 and 1 mM MgCl2. Plates were then sealed and subjected to dark adaptation at room temperature for 10 minutes. Luciferase activity was measured on a Packard TopCount™ microplate scintillation counter using 2 seconds per well count time.
Data analysis was performed using standard methods.
The Normalization Equation used was 100*(Unknown compound response−Background response)/(Agonist Max response−Background response).
The Curve Fit Function used was y=((Vmax*x^n)/(K^n+x^n))+Y2.
A percent max response and pEC50 were recorded for each compound. Although specific pEC50 values are given, these values should be considered exemplary. Those skilled in the art will appreciate the variability in performing and recording the biological activity assays that are herein described. The compounds of the present invention provide a pEC50 of at least 5.0.

T1 sequence (O14842 whole entry): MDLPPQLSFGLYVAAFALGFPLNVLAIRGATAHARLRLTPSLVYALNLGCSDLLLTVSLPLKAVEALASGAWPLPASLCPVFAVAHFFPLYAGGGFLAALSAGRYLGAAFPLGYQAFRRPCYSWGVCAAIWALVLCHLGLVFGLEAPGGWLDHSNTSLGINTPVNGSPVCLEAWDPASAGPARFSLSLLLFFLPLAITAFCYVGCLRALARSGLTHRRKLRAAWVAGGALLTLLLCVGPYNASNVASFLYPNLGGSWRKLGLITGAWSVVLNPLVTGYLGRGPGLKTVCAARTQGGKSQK

Structure (SMILES)	EC50
Cc1nc(-c2ccc(C(F)(F)F)cc2)sc1CNc1ccc(C2CC2C(=O)NC(C)C)cc1 (stereo not drawn) [Example 53, Enantiomerically Enriched N-isopropyl-2-{4-[({4-methyl-2-[4-(trifluoromethyl)phenyl]-1,3-thiazol-5-yl}methyl)amino]phenyl}cyclopropanecarboxamide]	10 nM
CC(C)(C)c1ccc(Oc2cccc(CNc3ccc(C4CC4C(=O)O)cc3)c2)cc1 (racemic) [Example 7, Racemic-(trans)-2-(4-{[(3-{[4-(1,1-dimethylethyl)phenyl]oxy}phenyl)methyl]ammonium}phenyl)cyclopropanecarboxylic Acid Trifluoroacetate]	20 nM
O=C(O)C1CC1c1ccc(NCc2cccc(Oc3ccc(Cl)c(Cl)c3)c2)cc1 (racemic) [Example 4, Racemic-(trans)-2-{4-[({3-[(3,4-dichlorophenyl)oxy]phenyl}methyl)ammonium]phenyl}-cyclopropanecarboxylic Acid Trifluoroacetate]	2 nM
O=C(O)[C@H]1C[C@@H]1c1ccc(NCc2cccc(Oc3ccc([N+](=O)[O-])cc3)c2)cc1 (racemic) [Example 22, Racemic-(trans)-2-{4-[({3-[(4-nitrophenyl)oxy]phenyl}methyl)amino]phenyl}cyclopropanecarboxylic Acid Trifluoroacetate]	316 nM
O=C(NCc1ccncc1)[C@@H]1C[C@H]1c1ccc(NCc2cccc(Oc3ccccc3)c2)cc1 (racemic) [Example 47, Racemic-(trans)-2-[4-({[3-(phenyloxy)phenyl]methyl}amino)phenyl]-N-(4-pyridinylmethyl)cyclopropanecarboxamide]	10 nM
O=C(O)C1CC1c1cc(F)c(NCc2cccc(Oc3ccccc3)c2)cc1F (single isomer, unassigned; (+)) [Example 31a, (+)-(trans)-2-[2,5-difluoro-4-({[3-(phenyloxy)phenyl]methyl}amino)phenyl]cyclopropanecarboxylic Acid]	501 nM
O=C(O)[C@@H]1C[C@H]1c1ccc(NCc2ccc(-c3ccc(C(F)(F)F)cc3)s2)cc1 (racemic) [Example 19, Racemic-(trans)-2-{4-[({5-[4-(trifluoromethyl)phenyl]-2-thienyl}methyl)amino]phenyl}cyclopropanecarboxylic Acid Trifluoroacetate]	63.1 nM
O=C(NCC(F)(F)F)[C@@H]1C[C@H]1c1ccc(NCc2cccc(Oc3ccccc3)c2)cc1 (racemic) [Example 51, Racemic-(trans)-2-{4-[(3-phenoxybenzyl)amino]phenyl}-N-(2,2,2-trifluoroethyl)cyclopropanecarboxamide]	50.1 nM
O=C(O)C1CC1c1ccc(NCc2cccc(Oc3ccc(Cl)c(Cl)c3)c2)cc1 (single isomer, unassigned; (+)) [Example 28a, (+)-(Trans)-2-{4-[({3-[(3,4-dichlorophenyl)oxy]phenyl}methyl)amino]phenyl}cyclopropanecarboxylic Acid Trifluoroacetate]	3.16 nM
O=C(O)[C@H]1C[C@@H]1c1ccc(NCc2cccc(Oc3cc(Cl)cc(Cl)c3)c2)cc1 [Example 32, (+)-(trans)-2-{4-[({3-[(3,5-dichlorophenyl)oxy]phenyl}methyl)amino]phenyl}cyclopropanecarboxylic Acid trifluoroacetate]	5.01 nM
O=C(O)[C@@H]1C[C@H]1c1ccc(NCc2cc(-c3ccc(C(F)(F)F)cc3)co2)cc1 (racemic) [Example 20, Racemic-(trans)-2-{4-[({4-[4-(trifluoromethyl)phenyl]-2-furanyl}methyl)amino]phenyl}cyclopropanecarboxylic Acid]	158 nM
O=C(O)[C@@H]1C[C@H]1c1ccc(NCc2ccc(-c3ccc(Cl)cc3)o2)cc1 (racemic) [Example 15, Racemic-(trans)-2-[4-({[5-(4-chlorophenyl)-2-furanyl]methyl}amino)phenyl]cyclopropanecarboxylic Acid]	126 nM
Cc1nc(-c2ccc(C(F)(F)F)cc2)sc1CNc1ccc([C@@H]2C[C@H]2C(=O)NCc2ccncc2)cc1 (racemic) [Example 37, Racemic-(trans)-2-{4-[({4-methyl-2-[4-(trifluoromethyl)phenyl]-1,3-thiazol-5-yl}methyl)amino]phenyl}-N-(4-pyridinylmethyl)cyclopropanecarboxamide]	10 nM
Cc1nc(-c2ccc(C(F)(F)F)cc2)sc1CNc1ccc([C@@H]2C[C@H]2C(N)=O)cc1 (single isomer, unassigned) [Example 39, Enantiomerically Enriched (trans)-2-{4-[({4-methyl-2-[4-(trifluoromethyl)phenyl]-1,3-thiazol-5-yl}methyl)amino]phenyl}cyclopropanecarboxamide]	10 nM
Cc1nc(-c2ccc(C(F)(F)F)cc2)sc1CNc1ccc([C@@H]2C[C@H]2C(=O)NC2CCC2)cc1 (single isomer, unassigned) [Example 42, Enantiomerically Enriched (trans)-N-cyclobutyl-2-{4-[({4-methyl-2-[4-(trifluoromethyl)phenyl]-1,3-thiazol-5-yl}methyl)amino]phenyl}cyclopropanecarboxamide]	7.94 nM
O=C(O)[C@@H]1C[C@H]1c1ccc(NCc2ccc(-c3ccc(C(F)(F)F)cc3)o2)cc1 (racemic) [Example 18, Racemic-(trans)-2-{4-[({5-[4-(trifluoromethyl)phenyl]-2-furanyl}methyl)amino]phenyl}cyclopropanecarboxylic Acid Trifluoroacetate]	251 nM
O=C(NCCN1CCOCC1)[C@@H]1C[C@H]1c1ccc(NCc2cccc(Oc3ccccc3)c2)cc1 (racemic) [Example 50, Racemic-(trans)-N-(2-morpholin-4-ylethyl)-2-{4-[(3-phenoxybenzyl)amino]phenyl}cyclopropanecarboxamide]	251 nM

The remaining lines, values ahead:

EC50	Structure (SMILES)
251 nM	NC(=O)[C@@H]1C[C@H]1c1ccc(NCc2ccc(-c3ccccn3)cc2)cc1 (racemic) [Example 36, Racemic-(trans)-2-[4-({[4-(2-pyridinyl)phenyl]methyl}amino)phenyl]cyclopropanecarboxamide]
25.1 nM	O=C(O)[C@H]1C[C@@H]1c1ccc(NCc2cccc(Cc3ccccc3)c2)cc1 (racemic) [Example 21, Racemic-(trans)-2-[4-({[3-(phenylmethyl)phenyl]methyl}amino)phenyl]cyclopropanecarboxylic Acid Trifluoroacetate]
631 nM	O=C(O)[C@@H]1C[C@H]1c1ccc(NCc2cccc(Oc3ccccc3)c2)cc1 (single isomer, unassigned) [Example 25]
3.98 nM	O=C(O)C1CC1c1ccc(NCc2cccc(Oc3ccccc3)c2)cc1 (single isomer, unassigned; (+)) [Example 26, (+)-(Trans)-2-{4-[(3-phenoxybenzyl)amino]phenyl}cyclopropanecarboxylic Acid]
126 nM	O=C(O)C1CC1c1ccc(NCc2cccc(OCc3ccccc3)c2)cc1 (racemic) [Example 11, Racemic-(trans)-2-{4-[({3-[(phenylmethyl)oxy]phenyl}methyl)ammonium]phenyl}-cyclopropanecarboxylic Acid Trifluoroacetate]
10 nM	CC(C)NC(=O)C1CC1c1ccc(NCc2cccc(Oc3ccccc3)c2)cc1 (single isomer, unassigned; (+)) [Example 44, (+)-(trans)-N-(1-methylethyl)-2-[4-({[3-(phenyloxy)phenyl]methyl}amino)phenyl]cyclopropanecarboxamide]
200 nM	Nc1ccc(Oc2cccc(CNc3ccc([C@H]4C[C@@H]4C(=O)O)cc3)c2)cc1 (racemic) [Example 24, Racemic-(trans)-2-{4-[({3-[(4-aminophenyl)oxy]phenyl}methyl)amino]phenyl}cyclopropanecarboxylic Acid Trifluoroacetate]
31.6 nM	O=C(O)[C@H]1C[C@@H]1c1ccc(NCc2cccc(Sc3ccccc3)c2)cc1 (racemic) [Example 23, Racemic-(trans)-2-[4-({[3-(phenylthio)phenyl]methyl}amino)phenyl]cyclopropanecarboxylic Acid Trifluoroacetate]
20 nM	NC(=O)C1CC1c1ccc(NCc2ccc(-c3ccccc3)cc2)cc1 (racemic) [Example 35, Racemic-(trans)-2-{4-[(4-biphenylmethyl)amino]phenyl}cyclopropanecarboxamide]
12.6 nM	O=C(O)C1CC1c1ccc(NCc2cccc(Oc3ccccc3)c2)cc1 (racemic) [Example 1, Racemic-(trans)-2-[4-({[3-(phenyloxy)phenyl]methyl}ammonium)phenyl]cyclopropanecarboxylic Acid Trifluoroacetate]
